{
  "source": "patent US9464105B2",
  "about": "“Hydroxylated KRN7000 analogue and use thereof” (RIKEN, priority 2012, dated 2016)",
  "data": [
    {"system": "IFN-γ and IL-4 in plasma", "test": "Cytokine content in mouse plasma after intravenous administration of glycolipid (Cytometric Bead Array)", "format": "in vivo, C57BL/6 mice", "conditions": "tail vein, 100 μg/kg body weight, plasma up to 60 hr (FIG. 1, FIG. 2)", "procedure": "Solutions of each of KRN7000, RCAI-147, RCAI-151, and RCAI-160 in dimethyl sulfoxide (DMSO) at a concentration of 1 mg/mL were prepared. The above-mentioned DMSO solutions were diluted 5-fold with 0.5% Tween 20 (Bio-Rad)-containing phosphate buffer (Invitrogen) and further diluted 20-fold with phosphate buffer, such that the dose became 100 μg/kg body weight when 200 μL was administered per mouse from the tail vein.\nTo three C57BL/6 mice per group was injected each prepared solution (200 μL) of RCAI-147, RCAI-151 and RCAI-160 into the tail vein (administration of about 2 μg per mouse). As a control substance, KRN7000 was used, and a solution (200 μL) of KRN7000 prepared in the same manner such that the dose became 100 μg/kg body weight was injected into the tail vein. The blood (80 μL) immediately before administration, and after lapse of 1, 3, 6, 12, 24, 32, 48 and 60 hr was collected from orbital plexus venosus, and plasma was prepared.\nThe content of each cytokine in plasma immediately before and after administration of each glycolipid was measured by Cytometric Bead Array (CBA) system (BD Biosciences) which is one of the ELISA methods.\nThe measurement results (mean) and standard deviation thereof (STDEV) of the content of IFN-γ in plasma immediately before administration, and after lapse of 3, 6, 12, 24, 32, 48 and 60 hr are shown in FIG. 1. The measurement results (mean) and standard deviation thereof (STDEV) of the content of IL-4 in plasma immediately before administration, and after lapse of 1, 3, 6, 12 and 24 hr from the administration are shown in FIG. 2.", "values": [
      {"compound": "CCCCCCCCCCCCCCCCCCCCCCC[C@@H](O)[C@@H](O)C(=O)N[C@@H](COC1OC(CO)C(O)C(O)C1O)[C@H](O)[C@H](O)[C@@H](O)[C@@H](O)CCCCCCCCCCCC", "note": "(stereo partly drawn) [RCAI-147, (2S,3S,4S,5S,6S)-2-[(2′R,3′R)-2′,3′-(dihydroxy)hexacosanoylamino]-3,4,5,6-(tetrahydroxy)octadecyl α-D-galactopyranoside]", "cytokine production induction activity (IFN-γ / IL-4 bias) as compared to KRN7000": "cytokine production induction activity biased to the IL-4 as compared to KRN7000"},
      {"compound": "CCCCCCCCCCCCCCCCCCCCCCC[C@@H](O)[C@@H](O)C(=O)N[C@@H](COC1OC(CO)C(O)C(O)C1O)[C@H](O)[C@H](O)CCCCCCCCCCCCCC", "note": "(stereo partly drawn) [RCAI-151, (2S,3S,4R)-3,4-dihydroxy-2-[(2′R,3′R)-2′,3′-dihydroxyhexacosanoylamino]octadecyl α-D-galactopyranoside]", "cytokine production induction activity (IFN-γ / IL-4 bias) as compared to KRN7000": "cytokine production induction activity biased to the IL-4 as compared to KRN7000"},
      {"compound": "CCCCCCCCCCCCCCCCCCCCCC[C@@H](O)[C@@H](O)[C@@H](O)C(=O)N[C@@H](CO[C@H]1O[C@H](CO)[C@H](O)[C@H](O)[C@H]1O)[C@H](O)[C@H](O)CCCCCCCCCCCCCC", "note": "[RCAI-160, (2S,3S,4R)-2-[(2′R,3′R,4′R)-2′,3′,4′-trihydroxyhexacosanoyl]amino-3,4-di-hydroxyoctadecyl α-D-galactopyranoside]", "cytokine production induction activity (IFN-γ / IL-4 bias) as compared to KRN7000": "cytokine production induction activity biased to the IL-4 as compared to KRN7000"}
    ]}
  ]
}
